Results published in patent US20170281727A1, “THERAPEUTIC OR PROPHYLACTIC AGENT FOR ITCHING SKIN DISEASES” (Toray Industries, Inc., priority 2014, published 2017).
Entries after “also recorded” stand apart in the source; their conditions may differ.

Assays:
Format in all cases: cell-based, human
[1] = system: TSLP; assay: mRNA expression analysis of TSLP by real-time PCR in NHEKs
Method: (§1) Normal human epidermal keratinocytes (NHEKs) were cultured according to a protocol provided by Lonza. NHEKs were cultured in a 12-well tissue culture plate and, in the growth phase (80% confluence), LL-37 (20 μg/ml) was added alone, or LL-37 (20 μg/ml) and the peptide SLIGRL (SEQ ID NO:2, 100 μM) were added, to the cells. The peptide SLIGRL is a peptide frequently used as a PAR2 agonist, and it is known that activation of PAR2 induces promotion of expression of TSLP in keratinocytes (Wilson et al, Cell, 2013: 155, 285-295). Total RNA was extracted 48 hours after the addition of LL-37, and mRNA expression analysis was carried out by real-time PCR. The culture supernatant was collected, and subjected to analysis of the protein expression level by ELISA. • (3) Analysis of Expression of mRNA of Each Gene
(§2) The transcription level of each gene was analyzed by quantitative real-time PCR. […] According to the manufacturer's instructions, quantitative real-time PCR was carried out using an Applied Biosystems 7900HT Fast Real-time PCR system (Applied Biosystems) with SYBR Premix Ex Taq (Takara). […] The amount of each mRNA was normalized against the amount of mRNA of RPS18, and finally expressed as the ratio to the mRNA in an untreated control.

[2] = system: NGF; assay: mRNA expression analysis of NGF by real-time PCR in NHEKs; conditions: LL-37 20 μg/ml, 48 hours after stimulation, vs control without LL-37
Method: as §1, §2

[3] = system: hBD-1; assay: mRNA expression analysis of hBD-1 by real-time PCR in NHEKs; conditions: LL-37 20 μg/ml, 48 hours after stimulation, vs control without LL-37
Method: as §1, §2

[4] = system: Sema3A; assay: Sema3A protein in NHEK culture supernatant by ELISA; conditions: NHEKs, LL-37 20 μg/ml, 48 hours after stimulation, vs control without LL-37
Method: as §1
The expression level of each protein was analyzed by ELISA. The amount of Sema3A in the culture supernatant was measured using an Enzyme-linked Immunosorbent Assay Kit (USCN Life Science) according to the manufacturer's instructions.

[5] = system: Sema3A; assay: mRNA expression analysis of Sema3A by real-time PCR in NHEKs; conditions: LL-37 20 μg/ml, 48 hours after stimulation, vs control without LL-37
Method: as §1, §2

[6] = system: KAL1; assay: mRNA expression analysis of KAL1 by real-time PCR in NHEKs; conditions: LL-37 20 μg/ml, 48 hours after stimulation, vs control without LL-37
Method: as §1, §2

[7] = system: hBD-2; assay: mRNA expression analysis of hBD-2 by real-time PCR in NHEKs; conditions: LL-37 20 μg/ml, 48 hours after stimulation, vs control without LL-37
Method: as §1, §2

[8] = system: Artemin; assay: mRNA expression analysis of Artemin by real-time PCR in NHEKs; conditions: LL-37 20 μg/ml, 48 hours after stimulation, vs control without LL-37
Method: as §1, §2

LL-37: human cathelicidin antimicrobial peptide, LLGDFFRKSKEKIGKEFKRIVQRIKDFLRNLVPRTES, SEQ ID NO:1 (listed as Homo sapiens)
mRNA expression of TSLP ([1]; LL-37 20 μg/ml alone, 48 hours after stimulation, vs control without LL-37): Suppression; also recorded: decreases
mRNA expression of TSLP induced by SLIGRL ([1]; LL-37 20 μg/ml plus SLIGRL 100 μM (PAR2 agonist), 48 hours): suppression; also recorded: decreased
mRNA expression of NGF [2]: suppressed; also recorded: decreases
mRNA expression of hBD-1 [3]: Promotion; also recorded: increases
amount of Sema3A protein in the culture supernatant [4]: increase
mRNA expression of Sema3A [5]: promoted; also recorded: increases
mRNA expression of KAL1 [6]: promoted; also recorded: increases
mRNA expression of hBD-2 [7]: Promotion; also recorded: increases
mRNA expression of Artemin [8]: suppressed; also recorded: decreases
